# Data: patent publication US9012470B2 (Dart NeuroScience (Cayman) Ltd., priority 2010, dated 2015)
# How the values were obtained:
# [1] = test system: benzodiazepine site of GABAA; assay: Binding assay, benzodiazepine site of GABAA (binding assay 1: rat brain, (3H)-flunitrazepam; binding assay 2: bovine hippocampal membranes, [3H]-RY80); conditions: radioligand binding
# Procedure, shortened: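 Assay 1: rat whole-brain (minus cerebellum) membranes in Na–K phosphate pH 7.4, 1 nM (3H)-flunitrazepam, 60 min at 25° C., ± 30 μM GABA; nonspecific with 10 μM diazepam. Assay 2: bovine hippocampal membranes, 0.8 nM [3H]-RY80 in 50 mM Tris-Citrate pH 7.8/200 mM NaCl, 60 min at 0-4° C.; nonspecific with 0.5 μM L-655,708. Filtration read-out.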
# GABAA receptors = assay: Electrophysiology assay, two-electrode voltage clamp in Xenopus oocytes expressing GABAA receptors; type: cell-based; conditions: GABA EC10, screening concentration of 10 μM, subunit combination not stated
smiles,measurement,setting,value
CCNC(=O)n1cc2[nH]cc3c(=O)n(-c4ccccc4)nc-3c2n1 [Compound 21a],% Inhibition at 0.1 μM,[1]; 0.1 μM test compound,B (B indicates % inhibition <80% and >20%)
same,% Inhibition at 10 μM,[1]; 10 μM test compound,C (C indicates % inhibition <20%)
same,EP Modulation,GABAA receptors,D (D indicates negative modulation >20%)
